The results in this text go back to publication PMC4552316 (Nature chemical biology, 2011).

Series [1] deals with T1, human GMPR type 2 (hGMPR2) (Homo sapiens, UniProt Q9P2T1).
T1 sequence (Q9P2T1 1-348): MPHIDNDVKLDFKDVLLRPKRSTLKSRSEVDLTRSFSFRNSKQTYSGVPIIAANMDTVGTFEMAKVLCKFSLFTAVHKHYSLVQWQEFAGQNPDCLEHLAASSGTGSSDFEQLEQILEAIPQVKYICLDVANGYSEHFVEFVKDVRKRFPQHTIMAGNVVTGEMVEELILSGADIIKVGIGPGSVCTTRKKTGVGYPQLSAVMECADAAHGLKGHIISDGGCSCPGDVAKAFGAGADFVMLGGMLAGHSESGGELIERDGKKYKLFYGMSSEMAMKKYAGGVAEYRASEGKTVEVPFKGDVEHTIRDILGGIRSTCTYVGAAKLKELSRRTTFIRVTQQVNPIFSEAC
Put plainly: X-ray crystal structure of E•IMP•NADPH, […] Å. The format is binding.

Series [2] addresses E. coli GMPR (EcGMPR), GMP reductase (Escherichia coli, UniProt P60560). Put plainly: spectrophotometric enzyme inhibition assay. The format is biochemical.
Series [3] relates to O=c1[nH]c(Cl)nc2c1ncn2[C@@H]1O[C@H](COP(=O)(O)O)[C@@H](O)[C@H]1O. The experiment in a line: purified protein. To be noted: NADPH or NADP+ catalytic Cys186 (E-XMP* intermediate; none with C186A).
For series [4], the system named is CC(=O)C1=CN([C@@H]2O[C@H](COP(=O)(O)OP(=O)(O)OC[C@H]3O[C@@H](n4cnc5c(N)ncnc54)[C@H](OP(=O)(O)O)[C@@H]3O)[C@@H](O)[C@H]2O)C=CC1. The experiment in a line: purified protein. Conditions: 2-Cl-IMP (co-substrate); varied: cofactor.
The series “crystal structure” concerns the molecule itself. The experiment in a line: crystal structure.

E. coli GMPR (EcGMPR), GMP reductase, sequence (P60560 whole entry): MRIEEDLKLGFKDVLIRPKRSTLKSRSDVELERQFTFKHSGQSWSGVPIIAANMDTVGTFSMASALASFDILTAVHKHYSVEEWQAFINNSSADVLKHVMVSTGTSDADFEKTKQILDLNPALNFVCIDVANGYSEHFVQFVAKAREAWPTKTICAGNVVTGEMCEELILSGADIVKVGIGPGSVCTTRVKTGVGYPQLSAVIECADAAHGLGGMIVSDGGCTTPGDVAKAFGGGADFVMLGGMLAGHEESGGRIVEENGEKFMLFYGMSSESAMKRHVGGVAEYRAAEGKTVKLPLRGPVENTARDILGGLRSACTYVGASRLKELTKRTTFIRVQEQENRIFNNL

As to `NC(=O)C1=CN([C@@H]2O[C@H](COP(=O)(O)OP(=O)(O)OC[C@H]3O[C@@H](n4cnc5c(N)ncnc54)[C@H](OP(=O)(O)O)[C@@H]3O)[C@@H](O)[C@H]2O)C=CC1` [NADPH], the “X-ray crystal structure of E•IMP•NADPH, 1.7 Å” value in series [1] is “NADPH was found in two conformations in the seven monomers, an "in" conformation and an "out" conformation”.
With `NC(=O)c1ncn([C@@H]2O[C@H](COP(=O)(O)O)[C@@H](O)[C@H]2O)n1` [Ribavirin monophosphate], in series [2], affinity was put at a Ki of 98 ± 25 µM.
Consider `NC(=O)c1ncn([C@@H]2O[C@H](COP(=O)(O)O)[C@@H](O)[C@H]2O)c1O` [mizoribine monophosphate], for which, in series [2], the affinity, expressed as Ki, was 0.015 ± 0.003 µM.
In the case of “E. coli GMPR (EcGMPR), GMP reductase (Escherichia coli K-12)”, the results for the Michaelis constant (Km) in series [3] and in series [4] were 7.8 ± 1.1 µM and 11.0 ± 2.0 µM, respectively.

B1: human GMP reductase type 2 (enzyme)
chain: LDFKDVLLRPKRSTLKSRSEVDLTRSFSFRNSKQTYSGVPIIAANMDTVGTFEMAKVLCKFSLFTAVHKHYSLVQWQEFAGQNPDCLEHLAASSGTGSSDFEQLEQILEAIPQVKYICLDVANGYSEHFVEFVKDVRKRFPQHTIMAGNVVTGEMVEELILSGADIIKVGIGPGSVCTTRKKTGVGYPQLSAVMECADAAHGLKGHIISDGGCSCPGDVAKAFGAGADFVMLGGMLAGHSESGGELIERDGKKYKLFYGMSSEMAMKKYAGGVAEYRASEGKTVEVPFKGDVEHTIRDILGGIRSTCTYVGAAKLKELSRRTTFIRVTQQVN
Turning to B1, in “crystal structure”, the stoichiometry N (in general, the number of molecules, sites or subunits per partner or assembly) amounted to 4.
